In the supplement of paper PMC10307832:

Columns and labels:
Test in all cases: relative viability (nuclei count vs DMSO), 5 days (fraction); higher = more cells survive
[1] = compound: C[C@@H](N)c1ccc(C(=O)Nc2ccnc3[nH]ccc23)cc1 + CS(=O)(=O)CCNCc1ccc(-c2ccc3ncnc(Nc4ccc(OCc5cccc(F)c5)c(Cl)c4)c3c2)o1 [Lapatinib] (partner 2 µM)
In short: (§1)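 After 5 days of treatment, lung cancer cells in 1536-well plates were fixed and stained in a single step (final 0.05% Triton X-100, 1% formaldehyde, 1 ug/ml Hoechst) and their nuclei counted on 4× images. Treatment had been applied by pin tool the day after seeding as one drug alone or as a fixed anchor-drug dose with five library-drug doses (not always all listed) in √10 steps. Relative viability is the nuclei count of treated wells divided by that of vehicle wells, and values are medians of duplicate plates.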

[2] = compound: C1CNCCC1C2=CC(=NN2)C3=CC=NC=C3 + C[C@@H](Oc1cc(-c2cnn(C3CCNCC3)c2)cnc1N)c1c(Cl)ccc(F)c1Cl [Crizotinib] (partner 1 µM)
In short: as §1

[3] = compound: C1CNCCC1C2=CC(=NN2)C3=CC=NC=C3 + CCNC(=O)c1noc(-c2cc(C(C)C)c(O)cc2O)c1-c1ccc(CN2CCOCC2)cc1 [Luminespib] (partner 0.01 µM)
In short: as §1

[4] = compound: C1CNCCC1C2=CC(=NN2)C3=CC=NC=C3 + NC(=O)Nc1cc(-c2cccc(F)c2)sc1C(=O)N[C@H]1CCCNC1 [AZD7762] (partner 0.2 µM)
In short: as §1

Cell Line	relative viability ([1]; first compound 0.04 µM)	relative viability ([1]; first compound 0.1265 µM)	relative viability ([1]; first compound 0.4 µM)	relative viability ([1]; first compound 4 µM)	relative viability ([2]; first compound 0.08 µM)	relative viability ([2]; first compound 0.8 µM)	relative viability ([2]; first compound 2.53 µM)	relative viability ([2]; first compound 8 µM)	relative viability ([3]; first compound 0.08 µM)	relative viability ([3]; first compound 0.8 µM)	relative viability ([3]; first compound 2.53 µM)	relative viability ([3]; first compound 8 µM)	relative viability ([4]; first compound 0.08 µM)	relative viability ([4]; first compound 0.8 µM)	relative viability ([4]; first compound 2.53 µM)	relative viability ([4]; first compound 8 µM)	relative viability ([1]; first compound 1.265 µM)
NCI-H1355	0.973	0.972	1.03	0.924	1.02	1.03	1.12	1.13	0.64	0.818	0.696	0.766	0.682	0.801	0.822	0.796	
EKVX	0.223	0.224	0.242	0.215	1.05	0.807	0.956	0.925	0.855	0.609	0.987	0.8	0.754		0.704	0.701	0.224
NCI-H441					0.709	0.713	0.853	0.862	0.332	0.312	0.309	0.444	0.967	1.18	0.948	1.19	
NCI-H1975	0.833	0.765	0.922	0.546	0.988	1.05	0.963	0.889	0.166	0.214	0.193	0.254	0.758	0.599	0.742	0.679	0.88
HCC-78	1.3	0.767	1.15	0.677	0.369		0.399	0.381					0.644		0.888	0.723	0.171
NCI-H2085	0.841	0.729	0.872	0.799	0.976	0.938	0.973	0.825	0.412	0.38	0.498	0.435	0.999		1.03	1	0.546
H3255	0.306	0.304	0.302	0.306	0.891	0.816	1.02	0.609	0.755	0.955	1.15	1.08	0.954	0.835	1.12	0.967	0.334
NCI-H2087	0.85	1.22	0.831	0.825	0.837	1.02	0.976	0.666	0.145	0.178	0.281	0.254	1.18	1.46	1.33	1.22	0.148
LC-2-ad	0.899	0.922	1	0.661	0.491	0.478	0.445	0.456		1.13	1.13	0.987	0.84	0.859	0.872	0.87	0.967
PC-3 [JPC-3]	0.538	0.545	0.505	0.536	0.941	1.07	0.971	0.953	0.643	0.673	0.7	0.556	0.879	0.817	0.689	0.936	0.529
EBC-1	0.265	0.239	0.219	0.171	0.202	0.219	0.233	0.192									0.179
HCC-15	0.827	0.789	0.854	0.785	0.805	0.928	0.839	0.779	0.324	0.347	0.345	0.205	1.17	1.3	1.21	0.987	
NCI-H1563	0.805	0.945	0.854	1.05	0.644	0.766	0.85	0.941	0.536	0.497	0.518	0.494					0.446
COR-L 105	0.305	0.355	0.376	0.364	0.649	0.982	0.799	0.906	0.688	0.648	0.921	0.962					0.257
NCI-H520	1.08	0.953	0.949	1.03	0.742	0.921	0.727	0.736	0.213	0.196	0.214	0.177					0.742
LU99A	1.1	1.09	1.13	0.906	0.5	0.586	0.596	0.558	0.3	0.235	0.248	0.252	0.403	0.338	0.4	0.439	0.753
NCI-H1666	0.724	0.618	0.967	0.928	0.762	0.935	0.989	0.902	0.921	1.11	1.05	1.01	0.829	0.847	1.04	1	0.835
NCI-H2170	0.28	0.273	0.302	0.26	1.04	1.23	1.42	1.15	0.534	0.739	0.737	0.567	0.746	0.909	0.949	0.897	0.323
NCI-H522									1.06	1.4	0.948	1.21	0.764	0.915	0.832	0.879	
LCLC-97TM1	1.53	1.45	1.65	1.36	0.348	0.429	0.408	0.406	0.734	0.916	0.962	0.713	0.27	0.239	0.248	0.332	0.83
NCI-H1299	0.908	0.93	0.91	0.737	0.991	1	0.99	0.9									0.837
NCI-H3122	0.966	1.04	1.08	0.981	0.303	0.265	0.255	0.283	0.109	0.114	0.1	0.104	0.948	1.06	0.966	1.01	0.875
